In ChEMBL document CHEMBL3352310, “A perspective on targeting non-structural proteins to combat neglected tropical diseases: Dengue, West Nile and Chikungunya viruses” (Eur J Med Chem, 2014) one finds IC50, Ki and EC50 data, which are given here for 33 compounds.

Test [1] addresses T1, Genome polyprotein (West Nile virus, UniProt P06935). Kind of test: Inhibition of West Nile virus NS2B-NS3 protease.
Test [2] concerns Dengue virus. Kind of test: Antiviral activity against Dengue virus assessed as inhibition of viral replication. Type of test: functional, organism-based.
Test [3] concerns the target Genome polyprotein (dengue virus type 2, UniProt P12823). The experiment in a line: Inhibition of dengue virus-2 NS2B-NS3 protease.
In test [4] the target is T2, Genome polyprotein (dengue virus type 2, UniProt Q91H74). The experiment in a line: Inhibition of dengue virus-1 NS2B-NS3 protease. Details: species or system dengue virus type 1.
Test [5] addresses T2, Genome polyprotein. The experiment in a line: Inhibition of dengue virus-4 NS2B-NS3 protease. Details: species or system dengue virus type 4.
The target in test [6] is T2, Genome polyprotein. Kind of test: Inhibition of dengue virus-3 NS2B-NS3 protease. Details: species or system dengue virus type 3.
For test [7], the target named is T2, Genome polyprotein. Kind of test: Inhibition of dengue virus NS2B-NS3 protease.
Test [8] can be described thus: Inhibition of Dengue virus RNA-directed RNA polymerase NS5.
Test [9] has as its system dengue virus type 4. Kind of test: Antiviral activity against Dengue virus 4. The test is classed as functional, organism-based.
Test [10] has as its system dengue virus type 3. Kind of test: Antiviral activity against Dengue virus 3. Type of test: functional, organism-based.
For test [11], the system named is dengue virus type 2. Kind of test: Antiviral activity against Dengue virus 2. The test is classed as functional, organism-based.
Test [12] deals with dengue virus type 1. The experiment in a line: Antiviral activity against Dengue virus 1. The test is classed as functional, organism-based.
A short description of test [13]: Inhibition of Dengue virus-3 N7-methyltransferase. Further details: species or system dengue virus type 3.
The nature of test [14]: Inhibition of Dengue virus-3 2'-O-methyltransferase. Further details: species or system dengue virus type 3.
Test [15] concerns the target T1, Genome polyprotein. The experiment in a line: Non-competitive inhibition of West Nile virus NS2B-NS3 protease.
The subject of test [16] is Dengue virus. The experiment in a line: Antiviral activity against Dengue virus assessed as inhibition of viral RNA replication. Type of test: functional, organism-based.
For test [17], the system named is Chikungunya virus. The experiment in a line: Antiviral activity against Chikungunya virus assessed as inhibition of viral replication. The test is classed as functional.
For test [18], the system named is Dengue virus. The experiment in a line: Antiviral activity against Dengue virus. Type of test: functional, organism-based.

Peptide text beside a SMILES is read from it. * marks the point of attachment. Bz = O=C(c1ccccc1)*

Consider `N=C(N)NCCC[C@H](NC(=O)[C@H](CCCCN)NC(=O)[C@H](CCCCN)NC(=O)c1ccccc1)C(=O)O` (Bz-Lys-Lys-Arg-OH), for which the IC50 in test [1] was found to be 0.42 µM. As for `CC(C)C[C@@H]1NC(=O)[C@H](CCCN)NC(=O)[C@H](C(C)C)NC(=O)[C@H](Cc2ccc(O)cc2)N[C@@H](CCC(=O)O)C(=O)N[C@@H](CC(N)=O)C(=O)[C@@H](Cc2ccccc2)NC(=O)[C@H](Cc2ccccc2)NC(=O)[C@@H]2CCCN2C(=O)[C@@H](Cc2ccccc2)NC1=O`, in test [1], the inhibition constant Ki came out at 2 µM. Take `O=c1c(O[C@@H]2O[C@@H](CO)[C@H](O)[C@H]2O)c(-c2ccc(O)c(O)c2)oc2cc(O)cc(O)c12` [AVICULARIN]: the IC50 in test [2] came out at 1.7 µM. Same read-out and setting: the result for `C=C(C)[C@@H]1CC[C@]2(C(=O)O)CC[C@]3(C)[C@H](CC[C@@H]4[C@@]5(C)CC[C@H](O)C(C)(C)[C@@H]5CC[C@]43C)[C@@H]12` [BETULINIC ACID] reads 1.7 µM. Consider `N#Cc1ccc(OC(=O)c2ccc(NC(=N)N)cc2)cc1`, for which, in test [3], it took 37.9 µM to reach half-maximal inhibition (IC50) and the affinity corresponds to a Ki of 31.1 µM.

Turning to `NC(=O)[C@H](Cc1c[nH]c2ccccc12)NC(=O)[C@H](CS)NC(=O)[C@H](Cc1ccc(O)cc1)NC(=O)[C@@H](N)Cc1c[nH]c2ccccc12` (H-WYCW-NH2), the Ki in [3] stood at 4.8 µM; in test [4] it was 4.2 µM; in test [5] it was 11.2 µM; in test [6], 24.4 µM. The compound `COc1ccc(-c2nnc(C(Cc3ccccc3)n3sc4ccccc4c3=O)o2)cc1` (stereo not drawn) came in with an IC50 in test [7] of 3.75 µM. Regarding `COc1ccc(-c2coc3c(-c4cc(-c5cc(=O)c6c(O)cc(O)cc6o5)ccc4O)c(O)cc(O)c3c2=O)cc1`, the IC50 in test [8] was determined as 0.75 µM. With `Cc1ccc(S(=O)(=O)Nc2cc(SCC(=O)O)c(O)c3ccccc23)cc1[N+](=O)[O-]`, the concentration giving a half-maximal response (EC50) is 0.74 µM in [9], 2.43 µM in test [10], 0.98 µM in test [11] and 0.97 µM in test [12]. `NC(CCSC[C@H]1O[C@@H](n2ccc3c(NCc4cccc(Cl)c4)ncnc32)C(O)C1O)C(=O)O` (stereo partly drawn): the inhibitory constant (Ki) came out at 0.82 µM in test [13] and 0.17 µM in test [14].

In test [8], `O=c1cc(-c2ccc(Oc3c(O)cc4occ(-c5ccc(O)cc5)c(=O)c4c3O)cc2)oc2cc(O)cc(O)c12` returned an IC50 of 0.26 µM. As to `Cc1ccc2c(c1)-c1c(=O)nc(SCc3ccccc3)[nH][n+]1C(c1ccc(Cl)cc1)N2` (stereo not drawn), the half-maximal inhibitory concentration (IC50) in test [15] is 5.41 µM. In turn, `Cc1cc(C)c2c(c1)OC(c1ccc(N(C)C)cc1)CC2=O` (stereo not drawn) yielded an IC50 in test [7] of 121 µM. Regarding `CN1CCN(CCOc2cc(OC3CCOCC3)c3c(Nc4c(Cl)ccc5c4OCO5)ncnc3c2)CC1` [SARACATINIB], the 50% effective concentration (EC50) in test [16] was 1.6 µM. Regarding `C[C@@H]1O[C@@H](OC[C@H]2O[C@@H](Oc3c(-c4ccc(O)c(O)c4)oc4cc(O)cc(O)c4c3=O)[C@H](O)[C@@H](O)[C@@H]2O)[C@H](O)[C@H](O)[C@H]1O` [RUTIN], in [2], the half-inhibitory concentration (IC50) was determined as 1.7 µM.

Compound `CCCSc1nnc(N2C(=O)C(O)=C(C(=O)c3ccc(Cl)cc3)C2c2ccc(Cl)cc2)s1` (stereo not drawn) registered an IC50 in test [15] of 2.2 µM. On to `O=C1c2c(O)ccc([N+](=O)[O-])c2C(=O)c2c([N+](=O)[O-])ccc(O)c21`, for which the EC50 came to 0.88 µM in test [9], 3.08 µM in test [10], 0.44 µM in [11] and 5.96 µM in [12]. Consider `CCOc1ccc(/C=N/NC(=O)/C=C/c2ccc(C(C)(C)C)cc2)cc1OCC`, for which the 50% inhibitory concentration (IC50) in [17] is 3.2 µM. As to `O=c1c(OC2O[C@H](CO)[C@@H](O)[C@H](O)[C@H]2O)c(-c2ccc(OC3O[C@H](CO)[C@@H](O)[C@H](O)[C@H]3O)c(O)c2)oc2cc(O)cc(O)c12` (stereo partly drawn), the half-inhibitory concentration (IC50) in test [2] came to 1.7 µM.

For `Oc1c(C(Nc2nccs2)c2cccc(OCc3ccccc3)c2)ccc2cccnc12` (stereo not drawn), 2.01 µM corresponded to half-maximal inhibition in test [1] (IC50). As to `C[C@@H]1O[C@@H](Oc2c(-c3ccc(O)c(O)c3)oc3cc(O)cc(O)c3c2=O)[C@H](O)[C@H](O)[C@H]1O` [QUERCITRIN], in test [2], the IC50 was determined as 1.7 µM. In test [7], `O=c1cc(-c2ccccc2)oc2ccc(-c3cn[nH]n3)cc12` yielded an IC50 of 69 µM.

On to `COc1cc2c(cc1OC)-c1cc3ccc(OC)c(OC)c3c[n+]1CC2` [PALMITINE], for which, in test [15], the IC50 came out at 96 µM. With `CCc1ccc(NC(=O)CSc2nc3ccc(NC(=O)CSc4nnc(-c5ccccc5)n4C)cc3s2)cc1`, the IC50 in test [1] worked out at 3.4 µM.

Regarding `NC(=O)c1ncn([C@@H]2O[C@H](CO)[C@@H](O)[C@H]2O)n1` [RIBAVIRIN], it took 49 µM to reach a half-maximal effect in [18] (EC50).

As for `N=C(N)Nc1ccc(OC(=O)c2ccc(NC(=N)N)cc2)cc1`, in [3], inhibition was half-maximal at 7.7 µM (IC50) and affinity was put at a Ki of 2 µM. `Cc1ccc(C(NN=C(N)N)[PH](=O)O)cc1` (stereo not drawn) registered an IC50 in test [7] of 14 µM. In the case of `N=C(N)NCCC[C@H](NC(=O)[C@H](CCCCN)NC(=O)[C@H](CCCCN)NC(=O)C1CC1)C(=O)O`, 0.38 µM corresponded to half-maximal inhibition in [1] (IC50). Consider `N=C(N)Nc1ccc(O[C@H]2C[C@@H](Oc3ccc(NC(=N)N)cc3NC(=N)N)[C@H](NC(=N)N)C[C@@H]2NC(=N)N)c(NC(=N)N)c1`, for which the IC50 in [3], in test [4], in [5] and in test [6] was 1 µM throughout.

Regarding `O=c1c(O[C@@H]2O[C@H](CO)[C@H](O)[C@H](O)[C@H]2O)c(-c2ccc(O)c(O)c2)oc2cc(O)cc(O)c12` [HYPEROSIDE], the IC50 in [2] was 1.7 µM. Same read-out and setting: the result for `O=c1c(O)c(-c2ccc(O[C@@H]3O[C@H](CO)[C@@H](O)[C@H](O)[C@H]3O)c(O)c2)oc2cc(O)cc(O)c12` [SPIRAEOSIDE] reads 1.7 µM. With `N=C(N)N[C@H]1CC[C@H](CNC(=O)[C@H](CCCCN)NC(=O)[C@H](CCCCN)NC(=O)Cc2ccc(Cl)c(Cl)c2)CC1`, the Ki in [1] stood at 0.13 µM. In the case of `Cc1nc(Nc2ncc(C(=O)Nc3c(C)cccc3Cl)s2)cc(N2CCN(CCO)CC2)n1` [DASATINIB], in test [16], the 50% effective concentration (EC50) worked out at 0.11 µM.
